# Values quoted from earlier work in patent publication US20100227313A1, “Methods and Compositions for Determining Altered Susceptibility of HIV-1 to Protease Inhibitor Treatment” (priority 2007, published 2010).
# Tested on: HIV protease
# Conditions: 2006, cited from earlier work
smiles,measurement,setting,value
"CC(C)CN(C[C@@H](O)[C@H](Cc1ccccc1)NC(=O)O[C@H]1CCOC1)S(=O)(=O)c1ccc(N)cc1 [APV, amprenavir]",effect of I47A mutation on susceptibility,"I47A, de Mendoza et al.",reduced susceptibility
same,effect of L33F mutation in protease on susceptibility,"L33F, Kozal et al.",correlate with resistance
